What was measured:
Assay in all cases: relative viability (nuclei count vs DMSO), 5 days (fraction); higher = more cells survive
[1] = compound: C1=CC2=C(C=C(C(=C2N=C1)O)N=NC3=CC4=C(C=C3)C=C(C=C4)S(=O)(=O)O)S(=O)(=O)O + CCNC(=O)c1noc(-c2cc(C(C)C)c(O)cc2O)c1-c1ccc(CN2CCOCC2)cc1 [Luminespib] (partner 0.01 µM)
Procedure, shortened: (§1)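 Lung cancer cell lines, seeded in 1536-well plates, were treated the following day by pin tool with a single drug or with five library-drug doses (not always all listed) in √10 steps on top of a fixed anchor-drug dose. Cells were fixed and nuclei stained in one step after 5 days, and nuclei were counted. Relative viability is the nuclei count for treated wells divided by that for vehicle wells, reported as medians of duplicate plates.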

[2] = compound: C1=CC2=C(C=C(C(=C2N=C1)O)N=NC3=CC4=C(C=C3)C=C(C=C4)S(=O)(=O)O)S(=O)(=O)O + O=C(c1cc(Cc2n[nH]c(=O)c3ccccc23)ccc1F)N1CCN(C(=O)C2CC2)CC1 [Olaparib] (partner 8 µM)
Procedure, shortened: as §1

AT-7519 + Pictilisib = compound: O=C(NC1CCNCC1)c1n[nH]cc1NC(=O)c1c(Cl)cccc1Cl [AT-7519] + CS(=O)(=O)N1CCN(Cc2cc3nc(-c4cccc5[nH]ncc45)nc(N4CCOCC4)c3s2)CC1 [Pictilisib] (partner 1 µM)
Procedure, shortened: as §1

AT-7519 + AZD7762 = compound: O=C(NC1CCNCC1)c1n[nH]cc1NC(=O)c1c(Cl)cccc1Cl [AT-7519] + NC(=O)Nc1cc(-c2cccc(F)c2)sc1C(=O)N[C@H]1CCCNC1 [AZD7762] (partner 0.2 µM)
Procedure, shortened: as §1

Row | Cell Line | relative viability ([1]; first compound 0.08 µM) | relative viability ([1]; first compound 0.253 µM) | relative viability ([1]; first compound 0.8 µM) | relative viability ([1]; first compound 2.53 µM) | relative viability ([1]; first compound 8 µM) | relative viability ([2]; first compound 0.08 µM) | relative viability ([2]; first compound 0.253 µM) | relative viability ([2]; first compound 0.8 µM) | relative viability ([2]; first compound 2.53 µM) | relative viability ([2]; first compound 8 µM) | relative viability (AT-7519 + Pictilisib; first compound 0.01 µM) | relative viability (AT-7519 + Pictilisib; first compound 0.03162 µM) | relative viability (AT-7519 + Pictilisib; first compound 0.3162 µM) | relative viability (AT-7519 + Pictilisib; first compound 1 µM) | relative viability (AT-7519 + AZD7762; first compound 0.01 µM) | relative viability (AT-7519 + AZD7762; first compound 0.03162 µM) | relative viability (AT-7519 + AZD7762; first compound 0.3162 µM) | relative viability (AT-7519 + AZD7762; first compound 1 µM)
1 | HCC-827 | 0.859 | 0.576 | 0.592 | 0.693 | 0.683 | 0.68 | 0.524 | 0.647 | 0.568 | 0.687 | 1.15 | 0.875 | 0.819 | 0.9 | 0.215 | 0.17 | 0.21 | 0.237
2 | LK-2 | 0.156 | 0.292 | 0.181 | 0.231 | 0.179 | 0.892 | 0.678 | 0.581 | 0.74 | 0.728 | 0.785 | 0.503 | 0.497 | 0.265 | 0.456 | 0.329 | 0.347 | 0.19
3 | BEN | 0.295 | 0.353 | 0.424 | 0.627 | 0.232 | 0.868 | 1.13 | 1.05 | 1.27 | 0.974 | 0.532 | 0.512 | 0.697 | 0.468 | 0.685 | 0.754 | 0.697 | 0.704
4 | NCI-H23 | 0.202 | 0.21 |  | 0.194 | 0.209 | 0.27 | 0.339 | 0.343 | 0.324 | 0.359 | 0.534 | 0.438 | 0.428 | 0.123 | 0.258 | 0.262 | 0.242 | 0.309
5 | NCI-H1395 | 0.851 | 0.859 | 0.806 | 0.701 | 0.786 | 0.498 | 0.47 | 0.489 | 0.469 | 0.402 | 0.662 | 0.523 | 0.51 | 0.471 | 0.359 | 0.391 | 0.425 | 0.348
6 | 201T | 1.09 | 1.09 | 1.04 | 1.09 | 1.04 | 0.846 | 0.82 | 0.871 | 0.852 | 0.832 | 0.684 | 0.712 | 0.7 | 0.77 | 0.595 | 0.591 | 0.645 | 0.683
7 | NCI-H2170 | 0.83 | 0.63 | 0.672 | 0.731 | 0.895 | 0.639 | 0.557 | 0.595 | 0.614 | 0.576 | 0.305 | 0.29 | 0.234 | 0.255 | 0.906 | 0.892 | 0.954 | 0.75
8 | NCI-H460 | 0.0298 | 0.032 | 0.13 | 0.022 | 0.0231 | 0.537 | 0.356 | 0.444 | 0.43 | 0.425 | 0.346 | 0.446 | 0.37 | 0.286 | 0.665 | 0.653 | 1.02 | 0.693
9 | HCC-15 | 0.345 | 0.383 | 0.304 | 0.428 | 0.368 | 0.879 | 0.682 | 0.714 | 0.698 | 0.727 | 0.766 | 0.764 | 0.59 | 0.323 | 1.18 | 1.37 | 1.17 | 1.14
10 | ABC-1 | 0.609 |  |  | 0.521 | 0.623 | 0.634 | 0.762 | 0.754 | 0.684 | 0.916 | 0.837 | 0.688 | 0.527 | 0.202 | 0.922 | 0.782 | 0.952 | 0.907
11 | LCLC-103H | 1.09 | 0.902 | 1.09 | 0.96 | 0.957 | 0.774 | 0.721 | 0.735 | 0.779 | 0.753 | 0.624 | 0.517 | 0.488 | 0.557 | 0.8 | 0.739 | 0.807 | 0.901
12 | NCI-H441 | 0.454 | 0.323 | 0.428 | 0.363 | 0.278 | 0.617 | 0.57 | 0.586 | 0.531 | 0.595 | 0.448 | 0.452 | 0.468 | 0.161 | 1.01 | 1.16 | 1.2 | 1.02
13 | EPLC-272H | 0.264 | 0.385 | 0.388 | 0.283 | 0.383 | 0.855 | 0.683 | 0.722 | 1 | 0.808 | 0.384 | 0.311 | 0.249 | 0.17 | 0.321 | 0.21 | 0.302 | 0.336

Source: the supplement of paper PMC10307832
